Measured values published in DBAASP.
Converted amounts (≈) assume the structure as drawn.

Tests used:
Test in all cases: ≥ marks a high value that may be exact or a test limit, other limits are often not marked, values filed in µg/mL are converted to µM
[1] = test system: Escherichia coli BL21
[2] = test system: Pseudomonas aeruginosa PAO1
[3] = test system: Streptococcus pyogenes M1T1 5448
[4] = test system: Escherichia coli JW0013
[5] = test system: Bacillus subtilis
[6] = test system: Escherichia coli
[7] = test system: Proteus vulgaris
[8] = test system: Pseudomonas aeruginosa
[9] = test system: Salmonella typhimurium
[10] = test system: Staphylococcus epidermidis
[11] = test system: Streptococcus pyogenes
[12] = test system: Bacillus subtilis KCTC 3068
[13] = test system: Escherichia coli KCTC 1682
[14] = test system: Pseudomonas aeruginosa KCTC 1637
[15] = test system: Salmonella typhimurium KCTC 1926
[16] = test system: Staphylococcus aureus CCARM 3089
[17] = test system: Staphylococcus aureus KCTC 1621
[18] = test system: Staphylococcus epidermidis KCTC 1917
[19] = test system: Staphylococcus aureus USA 100
[20] = test system: Candida albicans ATCC 90028
[21] = test system: Pseudomonas aeruginosa ATCC 9027
[22] = test system: Staphylococcus aureus USA 300
[23] = test system: Pectobacterium carotovorum
[24] = test system: Enterococcus faecium
[25] = test system: Staphylococcus aureus

An MIC [1] of no less than 32 µM, an MIC [2] greater than 128 µM and an MIC [3] of 8 µM (≈ 23.4 µg/mL) were found for CC[C@H](C)[C@H](NC(=O)[C@H](CCCCN)NC(=O)[C@H](CCCCN)NC(=O)[C@H](CCCCN)NC(=O)[C@H](CC(C)C)NC(=O)[C@H](Cc1ccccc1)NC(=O)[C@H](CCC(N)=O)NC(=O)[C@H](CCCN=C(N)N)NC(=O)[C@@H](NC(=O)[C@@H](NC(=O)[C@H](CCC(=O)O)NC(=O)[C@H](CCCCN)NC(=O)CNC(=O)[C@H](C)N)[C@@H](C)O)[C@@H](C)CC)C(=O)N[C@@H](CCC(N)=O)C(=O)N[C@@H](CCC(=O)O)C(=O)N[C@@H](CCCCN)C(=O)NCC(=O)N[C@@H](CCCCN)C(=O)N[C@@H](CCCN=C(N)N)C(=O)N[C@@H](C)C(=O)N[C@H](C(=O)N[C@H](C(=O)N[C@@H](C)C(=O)N[C@@H](Cc1c[nH]c2ccccc12)C(=O)O)[C@@H](C)CC)[C@@H](C)O [AGKETIRQFLKKKIQEKGKRATIAW] in this work.
An MIC [1] of no less than 32 µM, an MIC [2] greater than 128 µM and an MIC [3] of 16 µM (≈ 47.2 µg/mL) were found for CC[C@H](C)[C@H](NC(=O)[C@H](Cc1ccccc1)NC(=O)[C@H](C)NC(=O)[C@H](CCCCN)NC(=O)[C@H](CCCCN)NC(=O)CNC(=O)[C@H](CCCN=C(N)N)NC(=O)[C@H](CCCCN)NC(=O)[C@H](CCCN=C(N)N)NC(=O)[C@H](CC(C)C)NC(=O)[C@H](CCC(=O)O)NC(=O)[C@H](CCC(=O)O)NC(=O)[C@H](CCCCN)NC(=O)[C@H](CC(C)C)NC(=O)[C@H](Cc1ccc(O)cc1)NC(=O)[C@H](CC(C)C)NC(=O)[C@@H](NC(=O)[C@H](CC(C)C)NC(=O)[C@H](C)NC(=O)[C@H](CCC(N)=O)NC(=O)[C@H](CCCN=C(N)N)NC(=O)CNC(=O)[C@H](C)N)[C@@H](C)O)C(=O)N[C@@H](C)C(=O)N[C@@H](Cc1c[nH]c2ccccc12)C(=O)O [AGRQALTLYLKEELRKRGKKAFIAW] in this work.
An MIC [4] of 0.3 µM (≈ 0.645 µg/mL) was found for CC(C)C[C@H](NC(=O)[C@H](CCCN=C(N)N)NC(=O)[C@@H]1CCCN1C(=O)[C@H](Cc1cnc[nH]1)NC(=O)[C@@H]1CCCN1C(=O)[C@@H]1CCCN1C(=O)[C@H](CCCN=C(N)N)NC(=O)[C@@H]1CCCN1C(=O)[C@H](CCC(N)=O)NC(=O)[C@@H]1CCCN1C(=O)[C@H](CCCN=C(N)N)NC(=O)[C@H](Cc1ccc(O)cc1)NC(=O)[C@@H](NC(=O)[C@@H]1CCCN1C(=O)[C@H](CCCN=C(N)N)NC(=O)[C@H](CC(N)=O)NC(=O)[C@H](CC(N)=O)NC(=O)CN)C(C)C)C(=O)O [GNNRPVYRPQPRPPHPRL] in this work.
An MIC [5] of no less than 64 µM, an MIC [6] of 64 µM (≈ 76.4 µg/mL) and an MIC [7] of no less than 64 µM were found for CC(C)C[C@H](NC(=O)[C@H](CCCN=C(N)N)NC(=O)[C@@H]1CCCN1C(=O)[C@H](Cc1cnc[nH]1)NC(=O)[C@@H]1CCCN1C(=O)[C@@H]1CCCN1C(=O)[C@H](CCCN=C(N)N)NC(=O)[C@@H]1CCCN1C(=O)[C@H](CCC(N)=O)NC(=O)[C@@H]1CCCN1)C(=O)O [PQPRPPHPRL] in this work. It also gave an MIC [8] of 64 µM (≈ 76.4 µg/mL), an MIC [9] of 16 µM (≈ 19.1 µg/mL) and an MIC [10] of no less than 64 µM. It also gave an MIC [11] of no less than 64 µM.
An MIC [12] of 2 µM (≈ 3.25 µg/mL), an MIC [13] of 2 µM (≈ 3.25 µg/mL) and an MIC [14] of 8 µM (≈ 13 µg/mL) were found for CC[C@H](C)[C@H](NC(=O)[C@H](CCCN=C(N)N)NC(=O)[C@H](CCCCN)NC(=O)[C@@H](NC(=O)[C@@H](NC(=O)[C@H](CCCN=C(N)N)NC(=O)[C@@H](N)CCCCN)[C@@H](C)CC)C(C)C)C(=O)N[C@@H](CCCCN)C(=O)N[C@@H](CCCCN)C(=O)N[C@@H](Cc1c[nH]c2ccccc12)C(=O)N[C@@H](CC(C)C)C(=O)N[C@@H](CCCN=C(N)N)C(N)=O [KRIVKRIKKWLR] in this work. The MIC [15] was 2 µM (≈ 3.25 µg/mL), the MIC [16] was 4 µM (≈ 6.49 µg/mL) and the MIC [17] was 2 µM (≈ 3.25 µg/mL). For the same compound, the MIC [18] was 1 µM (≈ 1.62 µg/mL).
An MIC [4] of 1.28 µM (≈ 3.1 µg/mL) was found for CC[C@H](C)[C@H](NC(=O)[C@H](CCCN=C(N)N)NC(=O)[C@H](CCCN=C(N)N)NC(=O)[C@@H]1CCCN1C(=O)[C@@H]1CCCN1C(=O)[C@H](CCCN=C(N)N)NC(=O)[C@@H]1CCCN1C(=O)[C@H](CCCN=C(N)N)NC(=O)[C@@H]1CCCN1C(=O)[C@H](CC(C)C)NC(=O)[C@H](Cc1ccc(O)cc1)NC(=O)[C@@H]1CCCN1C(=O)[C@H](CCSC)NC(=O)[C@H](CCCCN)NC(=O)[C@H](CC(=O)O)NC(=O)[C@@H](N)C(C)C)C(=O)N[C@@H](Cc1ccc(O)cc1)C(=O)N[C@@H](CC(N)=O)C(=O)N[C@@H](CCCN=C(N)N)C(N)=O [VDKMPYLPRPRPPRRIYNR] in this work.
An MIC [19] of no less than 100 µM was found for CC[C@H](C)[C@H](N)C(=O)N[C@@H](CCCN=C(N)N)C(=O)N[C@H](C(=O)N[C@@H](CCCN=C(N)N)C(N)=O)[C@@H](C)CC [IRIR] in this work.
An MIC [20] of no less than 100 µM, an MIC [21] greater than 100 µM and an MIC [19] of no less than 100 µM were found for NC(=O)C[C@H](NC(=O)[C@H](Cc1ccccc1)NC(=O)[C@@H](N)Cc1c[nH]c2ccccc12)C(=O)O [WFN] in this work. For the same compound, the MIC [22] was no less than 100 µM.
An MIC [1] of 4 µM (≈ 12 µg/mL), an MIC [2] of 16 µM (≈ 48 µg/mL) and an MIC [22] of no less than 128 µM were found for CC[C@H](C)[C@H](NC(=O)[C@H](CO)NC(=O)[C@H](CCC(=O)O)NC(=O)[C@H](CCCN=C(N)N)NC(=O)CNC(=O)[C@H](C)N)C(=O)N[C@@H](CCCCN)C(=O)N[C@@H](C)C(=O)N[C@@H](Cc1ccc(O)cc1)C(=O)N[C@@H](CC(C)C)C(=O)N[C@@H](CCCCN)C(=O)N[C@@H](CCCCN)C(=O)N[C@@H](CCC(=O)O)C(=O)N[C@H](C(=O)N[C@@H](CCCCN)C(=O)N[C@@H](CCCCN)C(=O)N[C@@H](CCCCN)C(=O)N[C@@H](Cc1c[nH]c2ccccc12)C(=O)N[C@@H](CCCCN)C(=O)N[C@@H](CCCN=C(N)N)C(=O)N[C@@H](C)C(=O)N[C@H](C(=O)N[C@H](C(=O)N[C@@H](C)C(=O)N[C@@H](Cc1c[nH]c2ccccc12)C(=O)O)[C@@H](C)CC)C(C)C)[C@@H](C)CC [AGRESIKAYLKKEIKKKWKRAVIAW] in this work. It also gave an MIC [3] of 16 µM (≈ 48 µg/mL).
An MIC [23] of 1.34 µM was found for CC(C)C[C@H](NC(=O)[C@H](Cc1ccccc1)NC(=O)CNC(=O)[C@H](C)NC(=O)[C@H](Cc1ccccc1)NC(=O)[C@@H](NC(=O)[C@H](CCCN=C(N)N)NC(=O)[C@H](CC(=O)O)NC(=O)[C@H](CCCCN)NC(=O)[C@H](CCC(=O)O)NC(=O)[C@@H](N)CCC(N)=O)[C@@H](C)O)C(=O)N[C@@H](CC(C)C)C(=O)N[C@@H](CCCCN)C(=O)NCC(=O)N[C@@H](Cc1ccccc1)C(=O)NCC(=O)N[C@H](C(=O)N[C@@H](CO)C(=O)N[C@@H](C)C(=O)N[C@@H](CO)C(=O)O)[C@@H](C)O [QEKDRTFAGFLLKGFGTSAS] in this work.
An MIC [1] of 16 µM (≈ 47.3 µg/mL), an MIC [2] of 64 µM (≈ 189 µg/mL) and an MIC [22] of 4 µM (≈ 11.8 µg/mL) were found for CC[C@H](C)[C@H](NC(=O)[C@H](CCCCN)NC(=O)[C@H](CCCCN)NC(=O)CNC(=O)[C@H](CCC(=O)O)NC(=O)[C@H](CCC(N)=O)NC(=O)[C@@H](NC(=O)[C@@H](NC(=O)[C@H](CCCCN)NC(=O)[C@H](CCCCN)NC(=O)[C@H](CC(C)C)NC(=O)[C@H](CCCN=C(N)N)NC(=O)[C@H](CCC(N)=O)NC(=O)[C@H](Cc1ccccc1)NC(=O)[C@@H](NC(=O)[C@H](CCCCN)NC(=O)[C@H](CCC(=O)O)NC(=O)[C@H](CCCCN)NC(=O)CNC(=O)[C@H](C)N)[C@@H](C)CC)[C@@H](C)O)[C@@H](C)CC)C(=O)N[C@@H](C)C(=O)N[C@@H](CCCCN)C(=O)N[C@@H](CCCN=C(N)N)C(=O)N[C@@H](C)C(=O)N[C@@H](Cc1c[nH]c2ccccc12)C(=O)O [AGKEKIFQRLKKTIQEGKKIAKRAW] in this work. It also gave an MIC [3] of no less than 128 µM.
An MIC [12] of 2.37 µM (≈ 4 µg/mL), an MIC [24] of 2.37 µM (≈ 4 µg/mL) and an MIC [13] of 9.47 µM (≈ 16 µg/mL) were found for NC(N)=NCCC[C@H](NC(=O)[C@H](CCCN=C(N)N)NC(=O)[C@H](Cc1ccccc1)NC(=O)[C@@H]1CCCN1C(=O)[C@H](Cc1c[nH]c2ccccc12)NC(=O)[C@H](Cc1c[nH]c2ccccc12)NC(=O)[C@H](Cc1c[nH]c2ccccc12)NC(=O)[C@@H]1CCCN1C(=O)[C@H](Cc1ccccc1)NC(=O)[C@H](CCCN=C(N)N)NC(=O)[C@@H](N)CCCN=C(N)N)C(=O)O [RRFPWWWPFRR] in this work. For the same compound, the MIC [14] was 9.47 µM (≈ 16 µg/mL), the MIC [15] was 4.73 µM (≈ 8 µg/mL) and the MIC [17] was 2.37 µM (≈ 4 µg/mL). For the same compound, the MIC [25] was 3.35 µM (≈ 5.66 µg/mL) and the MIC [18] was 1.18 µM (≈ 2 µg/mL).
